Experiments:
CDK6/D3 = CDK6/D3 (Homo sapiens, UniProt Q00534); assay: ADP Glo Kinase assay CDK6/D3; format: biochemical; conditions: CDK6D3; for Ki: read-out: CDK inhibition, Ki (μM) CDK6D3; for remaining activity at 10 µM: compound at 10 μM, read-out: residual activity (%) at 10 μM CDK6D3
Outline: (§1)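 ADP Glo luminescence, in-house: CDK4/D1, CDK6/D3 on RB-CTF substrate (Tris pH 7.5, MgCl2, DTT, BSA); CDK9/T1 on RBER-IRStide. Reaction 40 min, 37° C after ATP addition. 10-point 1:3 series, 10 μM to 0.5 nM. IC50 by 4-parameter logistic; Ki derived using ATP Km.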

CDK4/D1 = CDK4/D1 (Homo sapiens, UniProt P11802); assay: ADP Glo Kinase assay CDK4/D1; format: biochemical; conditions: CDK4D1; for Ki: read-out: CDK inhibition, Ki (μM) CDK4D1; for remaining activity at 10 µM: compound at 10 μM, read-out: residual activity (%) at 10 μM CDK4D1
Sequence of CDK4/D1 (P11802 whole entry): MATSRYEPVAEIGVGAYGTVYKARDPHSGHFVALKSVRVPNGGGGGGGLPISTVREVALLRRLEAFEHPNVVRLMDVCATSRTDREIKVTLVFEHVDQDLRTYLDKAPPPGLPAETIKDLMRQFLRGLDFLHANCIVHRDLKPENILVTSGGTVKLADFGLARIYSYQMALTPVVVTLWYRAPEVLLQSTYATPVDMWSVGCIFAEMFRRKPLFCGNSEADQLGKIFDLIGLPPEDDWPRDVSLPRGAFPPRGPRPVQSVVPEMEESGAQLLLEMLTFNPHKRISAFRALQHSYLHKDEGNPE
Sequence of CDK4/D1 (P24385 whole entry partner): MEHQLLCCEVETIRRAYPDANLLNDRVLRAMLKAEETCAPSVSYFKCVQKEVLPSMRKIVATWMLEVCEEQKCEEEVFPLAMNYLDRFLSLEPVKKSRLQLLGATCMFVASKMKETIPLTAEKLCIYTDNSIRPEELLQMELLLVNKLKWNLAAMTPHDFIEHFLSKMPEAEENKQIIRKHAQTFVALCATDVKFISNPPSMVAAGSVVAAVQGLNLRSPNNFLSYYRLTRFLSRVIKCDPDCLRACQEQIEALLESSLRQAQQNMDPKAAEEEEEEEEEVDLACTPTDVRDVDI
Outline: as §1

MOLM13 = assay: Resazurin cell viability assay, MOLM13 leukaemia cell line (72 h); format: cell-based; conditions: Homo sapiens, MOLM-13, MOLM13, 72 h, read-out: 72 h Antiproliferative activity, GI50 (μmol/L) ± SD
Protocol: (§2) Compounds from Example 1 were subjected to a standard MTT (3-(4,5-dimethylthiazol-2-yl)-2,5-diphenyltetrazolium bromide) and resazurin assays on solid tumour cell lines and leukemia cell lines, respectively, as previously reported (Wang S et al., J Med Chem 47:1662-1675, 2004 and Diab S. et al. CheMedChem 9:962-972, 2014). Compound concentrations required to inhibit 50% of cell growth (GI50) were calculated using non-linear regression analysis.

A2780 = assay: MTT cell viability assay, A2780 ovarian cancer cell line (72 h); format: cell-based; conditions: Homo sapiens, A2780, 72 h, read-out: 72 h Antiproliferative activity, GI50 (μmol/L) ± SD
Protocol: as §2

leukemia cell lines = assay: Resazurin cell viability assay on leukemia cell lines (72 h growth inhibition, GI50); format: cell-based; conditions: Homo sapiens, MV4-11 cells
Outline: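 Cells were exposed to compound, then viability was read by MTT (solid tumour lines) or resazurin reduction (leukaemia lines). Non-linear regression gave the concentration inhibiting 50% of cell growth.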

CDK9/T1 = CDK9/T1 (Homo sapiens, UniProt P50750); assay: ADP Glo Kinase assay CDK9/T1; format: biochemical; conditions: CDK9T1; read-out: CDK inhibition, Ki (μM) CDK9T1
Sequence of CDK9/T1 (P50750 whole entry): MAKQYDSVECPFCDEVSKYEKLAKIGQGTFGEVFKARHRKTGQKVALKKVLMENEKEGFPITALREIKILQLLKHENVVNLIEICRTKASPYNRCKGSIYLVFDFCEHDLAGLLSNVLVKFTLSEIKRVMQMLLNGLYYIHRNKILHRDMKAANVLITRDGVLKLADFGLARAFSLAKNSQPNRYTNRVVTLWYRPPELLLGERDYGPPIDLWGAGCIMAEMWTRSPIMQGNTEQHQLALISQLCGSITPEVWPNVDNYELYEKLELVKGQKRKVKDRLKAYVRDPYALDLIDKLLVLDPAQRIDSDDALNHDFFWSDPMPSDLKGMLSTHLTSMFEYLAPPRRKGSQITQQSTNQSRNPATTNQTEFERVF
Sequence of CDK9/T1 (O60563 whole entry partner): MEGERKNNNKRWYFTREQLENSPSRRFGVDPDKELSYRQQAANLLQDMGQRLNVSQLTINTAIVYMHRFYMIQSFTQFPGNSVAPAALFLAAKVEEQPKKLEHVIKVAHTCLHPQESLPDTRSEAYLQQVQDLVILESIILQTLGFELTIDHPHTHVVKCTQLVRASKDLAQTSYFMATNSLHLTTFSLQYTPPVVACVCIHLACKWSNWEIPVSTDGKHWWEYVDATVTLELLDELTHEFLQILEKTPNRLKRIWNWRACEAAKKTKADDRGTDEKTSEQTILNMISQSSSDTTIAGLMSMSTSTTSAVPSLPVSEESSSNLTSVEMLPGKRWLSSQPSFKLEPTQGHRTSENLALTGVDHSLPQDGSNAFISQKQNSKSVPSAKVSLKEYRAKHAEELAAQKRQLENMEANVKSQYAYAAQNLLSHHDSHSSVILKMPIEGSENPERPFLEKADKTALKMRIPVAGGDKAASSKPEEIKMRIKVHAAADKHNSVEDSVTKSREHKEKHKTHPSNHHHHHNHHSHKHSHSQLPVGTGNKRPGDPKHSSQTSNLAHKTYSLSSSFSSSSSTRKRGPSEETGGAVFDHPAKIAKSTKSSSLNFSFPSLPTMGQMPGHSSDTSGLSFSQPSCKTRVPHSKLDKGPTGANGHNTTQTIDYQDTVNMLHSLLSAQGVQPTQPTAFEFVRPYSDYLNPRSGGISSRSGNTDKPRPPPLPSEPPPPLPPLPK
Outline: as §1

U937 = assay: Resazurin cell viability assay, U937 leukaemia cell line (72 h); format: cell-based; conditions: Homo sapiens, U-937, U937, 72 h, read-out: 72 h Antiproliferative activity, GI50 (μmol/L) ± SD
Protocol: as §2

MDA-MB-468 = assay: MTT cell viability assay, MDA-MB-468 breast cancer cell line (72 h); format: cell-based; conditions: Homo sapiens, MDA-MB-468, 72 h, read-out: 72 h Antiproliferative activity, GI50 (μmol/L) ± SD
Protocol: as §2

CDKs and other kinases [1] = target: T1, CDKs and other kinases (Homo sapiens, UniProt P50613); assay: Radiometric kinase assay (Eurofins Pharma Discovery or Reaction Biology Corporation Kinase Profiler); format: biochemical; conditions: CDK7H; for Ki: read-out: CDK inhibition, Ki (μM) CDK7H; for remaining activity at 10 µM: compound at 10 μM, read-out: residual activity (%) at 10 μM CDK7H
T1 construct: other: CDK7H; residual activity (%) at 10 μM CDK7H; compound at 10 μM
T1 sequence (P50613 whole entry): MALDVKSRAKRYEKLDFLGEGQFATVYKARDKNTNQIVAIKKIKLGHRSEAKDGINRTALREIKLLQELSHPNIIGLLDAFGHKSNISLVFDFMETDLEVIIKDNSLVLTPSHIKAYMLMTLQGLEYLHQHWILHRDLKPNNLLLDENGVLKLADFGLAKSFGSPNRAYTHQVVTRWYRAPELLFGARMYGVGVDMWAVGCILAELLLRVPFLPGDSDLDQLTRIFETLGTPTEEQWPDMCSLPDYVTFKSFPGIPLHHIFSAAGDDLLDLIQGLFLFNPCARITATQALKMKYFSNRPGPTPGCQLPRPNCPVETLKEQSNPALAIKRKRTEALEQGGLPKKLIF
Outline: (§3)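 Other CDKs and further kinases were profiled externally by radiometric assay. In-house ADP Glo assays covered CDK4/D1 and CDK6/D3 (RB-CTF substrate, pH 7.5 Tris buffer with MgCl2, DTT, BSA) and CDK9/T1 (RBER-IRStide substrate), 40 min at 37° C.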

CDKs and other kinases [2] = target: T2, CDKs and other kinases (Homo sapiens, UniProt P06493); assay: as above; format: biochemical; conditions: CDK1B; for Ki: read-out: CDK inhibition, Ki (μM) CDK1B; for remaining activity at 10 µM: compound at 10 μM, read-out: residual activity (%) at 10 μM CDK1B
T2 construct: other: CDK1B; residual activity (%) at 10 μM CDK1B; compound at 10 μM
T2 sequence (P06493 whole entry): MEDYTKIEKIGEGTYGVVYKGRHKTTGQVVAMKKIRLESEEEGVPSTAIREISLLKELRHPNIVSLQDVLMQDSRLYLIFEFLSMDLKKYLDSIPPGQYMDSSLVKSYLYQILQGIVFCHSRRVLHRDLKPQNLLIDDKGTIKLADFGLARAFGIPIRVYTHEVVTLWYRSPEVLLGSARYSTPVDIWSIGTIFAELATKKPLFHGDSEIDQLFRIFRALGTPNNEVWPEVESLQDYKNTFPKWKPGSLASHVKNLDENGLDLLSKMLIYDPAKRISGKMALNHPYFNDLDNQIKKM
Outline: as §3

CDKs and other kinases [3] = target: T3, CDKs and other kinases (Homo sapiens, UniProt P24941); assay: as above; format: biochemical; conditions: CDK2A; for Ki: read-out: CDK inhibition, Ki (μM) CDK2A; for remaining activity at 10 µM: compound at 10 μM, read-out: residual activity (%) at 10 μM CDK2A
T3 construct: other: CDK2A; residual activity (%) at 10 μM CDK2A; compound at 10 μM
Outline: as §3

NB4 = assay: Resazurin cell viability assay, NB4 leukaemia cell line (72 h); format: cell-based; conditions: Homo sapiens, NB-4, NB4, 72 h, read-out: 72 h Antiproliferative activity, GI50 (μmol/L) ± SD
Protocol: as §2

MDA-MB-231 = assay: MTT cell viability assay, MDA-MB-231 breast cancer cell line (72 h); format: cell-based; conditions: Homo sapiens, MDA-MB-231, 72 h, read-out: 72 h Antiproliferative activity, GI50 (μmol/L) ± SD
Protocol: as §2

PC3 = assay: MTT cell viability assay, PC3 prostate cancer cell line (72 h); format: cell-based; conditions: Homo sapiens, PC-3, PC3, 72 h, read-out: 72 h Antiproliferative activity, GI50 (μmol/L) ± SD
Protocol: as §2

T47D = assay: MTT cell viability assay, T47D breast cancer cell line (72 h); format: cell-based; conditions: Homo sapiens, read-out: 72 h Antiproliferative activity, GI50 (μmol/L) ± SD
Protocol: as §2

MCF-7 = assay: MTT cell viability assay, MCF-7 breast cancer cell line (72 h); format: cell-based; conditions: Homo sapiens, MCF7, MCF-7, 72 h, read-out: 72 h Antiproliferative activity, GI50 (μmol/L) ± SD
Protocol: as §2

MDA-MB-453 = assay: MTT cell viability assay, MDA-MB-453 breast cancer cell line (72 h); format: cell-based; conditions: Homo sapiens, MDA-MB-453, 72 h, read-out: 72 h Antiproliferative activity, GI50 (μmol/L) ± SD
Protocol: as §2

LNCap = assay: MTT cell viability assay, LNCap prostate cancer cell line (72 h); format: cell-based; conditions: Homo sapiens, read-out: 72 h Antiproliferative activity, GI50 (μmol/L) ± SD
Protocol: as §2

Sequence of CDK6/D3 (Q00534 whole entry): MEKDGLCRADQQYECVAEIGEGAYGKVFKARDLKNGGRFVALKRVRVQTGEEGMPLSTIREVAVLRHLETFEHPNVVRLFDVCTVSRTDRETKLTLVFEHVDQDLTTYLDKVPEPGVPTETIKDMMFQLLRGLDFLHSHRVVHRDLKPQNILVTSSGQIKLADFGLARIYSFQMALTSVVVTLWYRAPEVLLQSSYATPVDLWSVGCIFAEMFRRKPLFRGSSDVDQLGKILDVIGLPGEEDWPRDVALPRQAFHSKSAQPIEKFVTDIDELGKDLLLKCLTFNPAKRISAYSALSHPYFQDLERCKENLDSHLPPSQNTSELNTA
Sequence of CDK6/D3 (P30281 whole entry partner): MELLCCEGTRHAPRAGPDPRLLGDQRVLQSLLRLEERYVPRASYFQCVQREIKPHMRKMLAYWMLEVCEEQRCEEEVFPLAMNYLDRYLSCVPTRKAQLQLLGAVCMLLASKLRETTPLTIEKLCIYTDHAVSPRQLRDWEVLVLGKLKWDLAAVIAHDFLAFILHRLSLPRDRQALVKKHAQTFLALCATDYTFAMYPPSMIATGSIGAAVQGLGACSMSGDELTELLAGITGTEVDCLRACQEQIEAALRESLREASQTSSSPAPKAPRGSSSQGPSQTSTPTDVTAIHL

SMILES	Ki (CDK6/D3)	Ki (CDK4/D1)	GI50 (leukemia cell lines)	Ki (CDK9/T1)	Ki (CDKs and other kinases [1])	Ki (CDKs and other kinases [2])	Ki (CDKs and other kinases [3])	remaining activity at 10 µM (CDK6/D3)	remaining activity at 10 µM (CDK4/D1)	remaining activity at 10 µM (CDKs and other kinases [2])	remaining activity at 10 µM (CDKs and other kinases [3])	also measured
N[C@H]1CC[C@H](Nc2ncc(F)c(-c3cnc4ccc(NCc5ccc(F)cc5)cn34)n2)CC1 [Compound 7, (1r,4r)-N^1-(5-Fluoro-4-(6-((4-fluorobenzyl)amino)imidazo [1,2-a]pyridin-3-yl)pyrimidin-2-yl)cyclohexane-1,4-diamine]	1.71 µM	0.691 µM	0.075 ± 0.011 µM	0.006 µM	0.73 µM	0.42 µM	0.24 µM					GI50 (MOLM13): 0.015 ± 0.006 µmol/L; GI50 (A2780): 0.274 ± 0.03 µmol/L; GI50 (U937): 0.156 ± 0.061 µmol/L; GI50 (MDA-MB-468): 0.08 ± 0.015 µmol/L; GI50 (NB4): 0.16 ± 0.052 µmol/L; GI50 (MDA-MB-231): 0.035 ± 0.008 µmol/L; GI50 (PC3): 0.087 ± 0.04 µmol/L; GI50 (T47D): 0.616 ± 0.086 µmol/L; GI50 (MCF-7): 0.218 ± 0.013 µmol/L; GI50 (MDA-MB-453): 0.931 ± 0.269 µmol/L
Cc1cnc(N[C@H]2CC[C@H](O)CC2)nc1-c1cnc2ccc(Nc3cncnc3)cn12 [Compound 108, (1r,4r)-4-((5-Methyl-4-(6-(pyrimidin-5-ylamino)imidazo [1,2-a]pyridin-3-yl)pyrimidin-2-yl)amino)cyclohexan-1-ol]			> 10 µM	0.018 µM	4.76 µM	0.16 µM	0.035 µM	68%	70%			
Cc1cnc(N[C@H]2CC[C@H](N)CC2)nc1-c1cnc2cc(C(F)(F)F)c(Br)cn12 [Compound 114, (1r,4r)-N^1-(4-(6-Bromo-7-(trifluoromethyl)imidazo [1,2-a]pyridin-3-yl)-5-methylpyrimidin-2-yl) cyclohexane-1,4-diamine]			0.026 ± 0.009 µM	0.005 µM	0.075 µM			40%	8%	53%	28%	
Cc1cnc(N[C@H]2CC[C@H](N)CC2)nc1-c1cnc2ccc(Nc3cncnc3)cn12 [Compound 115, (1r,4r)-N^1-(5-Methyl-4-(6-(pyrimidin-5-ylamino)imidazo [1,2-a]pyridin-3-yl)pyrimidin-2-yl)cyclohexane-1,4-diamine]	1.11 µM	1.24 µM	0.552 ± 0.166 µM	0.006 µM	4 µM	1.35 µM	0.14 µM					
N[C@H]1CC[C@H](Nc2ncc(F)c(-c3cnc4ccc(-c5ccc(C(=O)N6CCNCC6)cc5)cn34)n2)CC1 [Compound 117, (4-(3-(2-(((1r,4r)-4-Aminocyclohexyl)amino)-5-fluoropyrimidin-4-yl)imidazo[1,2-a]pyridin-6-yl)phenyl) (piperazin-1-yl)methanone]			0.045 ± 0.004 µM	0.004 µM				12%	0%	10%	4%	remaining activity at 10 µM (CDKs and other kinases [1]): 5%

The next lines start with results.

Ki (CDK6/D3)	Ki (CDK4/D1)	GI50 (leukemia cell lines)	Ki (CDK9/T1)	Ki (CDKs and other kinases [1])	Ki (CDKs and other kinases [2])	Ki (CDKs and other kinases [3])	remaining activity at 10 µM (CDK6/D3)	remaining activity at 10 µM (CDK4/D1)	remaining activity at 10 µM (CDKs and other kinases [2])	remaining activity at 10 µM (CDKs and other kinases [3])	SMILES	also measured
1.54 µM	2.62 µM	0.059 ± 0.008 µM	0.008 µM	0.6 µM	1.53 µM	0.43 µM					Cc1cnc(N[C@H]2CC[C@H](N)CC2)nc1-c1cnc2ccc(-c3ccccc3)cn12 [Compound 10, (1r,4r)-N^1-(5-Methyl-4-(6-phenylimidazo[1,2-a]pyridin-3-yl)pyrimidin-2-yl)cyclohexane-1,4-diamine]	GI50 (LNCap): 0.202 ± 0.052 µmol/L; GI50 (MOLM13): 0.019 ± 0.001 µmol/L; GI50 (A2780): 0.278 ± 0.032 µmol/L; GI50 (U937): 0.156 ± 0.05 µmol/L; GI50 (MDA-MB-468): 0.42 ± 0.07 µmol/L; GI50 (NB4): 0.153 ± 0.051 µmol/L; GI50 (MDA-MB-231): 0.418 ± 0.123 µmol/L; GI50 (PC3): 0.289 ± 0.098 µmol/L; GI50 (T47D): 0.834 ± 0.066 µmol/L; GI50 (MCF-7): 0.247 ± 0.014 µmol/L; GI50 (MDA-MB-453): 0.049 ± 0.012 µmol/L
		1.42 ± 0.652 µM	0.161 µM				54%	37%	47%	5%	Cc1cnc(N[C@H]2CC[C@H](O)CC2)nc1-c1cnc2ccccn12 [Compound 107, (1r,4r)-4-((4-(Imidazo[1,2-a]pyridin-3-yl)-5-methylpyrimidin-2-yl)amino)cyclohexan-1-ol]	remaining activity at 10 µM (CDKs and other kinases [1]): 34%
	> 5 µM	2.55 ± 1.7 µM	0.205 µM	> 5 µM	1.73 µM	0.49 µM	45%				Cc1cnc(NC2CCC(NCC(F)(F)F)CC2)nc1-c1cnc2ccc(Nc3cncnc3)cn12 (stereo not drawn) [Compound 112, N^1-(5-Methyl-4-(6-(pyrimidin-5-ylamino)imidazo[1,2-a]pyridin-3-yl)pyrimidin-2-yl)-N^4-(2,2,2-trifluoroethyl) cyclohexane-1,4-diamine]	
		> 10 µM	1.01 µM	2.59 µM	0.82 µM	0.45 µM	39%	28%			CC(=O)NC1CCC(Nc2ncc(C)c(-c3cnc4ccc(Nc5cncnc5)cn34)n2)CC1 (stereo not drawn) [Compound 113, N-(4-((5-Methyl-4-(6-(pyrimidin-5-ylamino)imidazo [1,2-a]pyridin-3-yl)pyrimidin-2-yl)amino)cyclohexyl) acetamide]	
